Ends that are not written are not given here.
Biological target: LOO10-GFP (Aequorea victoria, UniProt P42212, S30R/Y39N/F64L/S65T/F99S/N105T/Y145F/M153T/V163A/I171V, form not given)
Format: binding
Settings: read-out: Kd (dissociation constant between s10 peptide and LOO10-GFP); 50 nM LOO10-GFP, 0-2500 nM peptide, assay buffer pH 8, overnight 4°C, read at 25°C; 390ex/506em (WT, H199Y) or 495ex/520em (T203Y, H199Y/T203Y); quadratic fit; 3 independent measurements
Experimental: Fluorescence of each sample was measured at 390/506 nm for T203 variants and at 495/520 nm for Y203 variants, at 25°C, excitation slit 12 nm, emission slit 20 nm and 10s integration time. The affinity experiments were performed in 3 independent replicas for each peptide variant. […] All fits were performed in OriginPro 2017.

Chain of LOO10-GFP (P42212 whole entry S30R/Y39N/F64L/S65T/F99S/N105T/Y145F/M153T/V163A/I171V, form open): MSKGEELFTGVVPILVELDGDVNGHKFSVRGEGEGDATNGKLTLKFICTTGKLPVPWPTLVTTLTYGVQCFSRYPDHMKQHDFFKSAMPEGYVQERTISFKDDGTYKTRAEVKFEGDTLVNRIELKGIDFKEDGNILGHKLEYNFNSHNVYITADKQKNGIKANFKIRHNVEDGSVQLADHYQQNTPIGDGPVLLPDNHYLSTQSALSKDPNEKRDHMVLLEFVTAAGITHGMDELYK

Sequence | Kd
NHYLSTQTVLS [WT] | 280 ± 83 nM
NHYLSYQTVLS [T203Y] | 152 ± 47 nM
NYYLSTQTVLS [H199Y] | 53.4 ± 0.4 nM
NYYLSYQTVLS [H199Y/T203Y] | 32.6 ± 6.3 nM

From publication PMC7857580, “Substitutional landscape of a split fluorescent protein fragment using high-density peptide microarrays” (PLoS ONE, 2021)
